Data reported in patent US20230146455A1, “TREATMENT OF INFLAMMATORY DISEASES WITH PEPTIDES AND PHARMACEUTICAL COMPOSITIONS” (Yuyu Pharma, Inc., priority 2020, published 2023).
“And” between values parts separate entries of the source, which are not always exact repeats. Identical values can stand only once. Where a SMILES comes first, the peptide text is derived from it. [ ]: non-standard residue; d: D form. Hyp = O=C(O)[C@@H]1C[C@@H](O)CN1

Experiments:
[1] = tested on: IL-10; experiment: Example 9 Luminex, LPS hPBMCs: IL-10; assay type: cell-based, human; details: IL-10
Protocol: (§1) Treatment Human PBMCs were pretreated with YY-101, YDE-011 and YDE-043 or reference compound; Xiidra® at various concentration (ranging from 1 nM to 100 uM) for 2 h before stimulation. An equal volume of 0.5% DMSO was used as a vehicle control. Then, the cells were treated with LPS at 5 ug/ml. The supernatants from treated cells were harvested at 24 h and placed in a 96 well for Luminex cytokine & chemokine profiling using a Luminex 200 multiplex assay (Luminex; R&D system, USA).
(§2) The main study arm with triplicate wells per group in a 24-well plate: • 1. Blank • 2. PBMC: 0.5% DMSO • 3. PBMC+LPS (5 ug/ml) • 4. PBMC+YY-101 100 uM • 5. PBMC+YY-101 10 uM • 6. PBMC+YY-101 1 uM • 7. PBMC+YY-101 0.1 uM • 8. PBMC+YY-101 0.01 uM • 9. PBMC+LPS (5 ug/ml)+Xiidra®100 uM • 10. PBMC+LPS (5 ug/ml)+Xiidra® 10 uM • 11. PBMC+LPS (5 ug/ml)+Xiidra® 1 uM • 12. PBMC+LPS (5 ug/ml)+Xiidra®0.1 uM • 13. PBMC+LPS (5 ug/ml)+Xiidra®0.01 uM • 14. PBMC+LPS (5 ug/ml)+Xiidra®0.001 uM • 15. PBMC+LPS (5 ug/ml)+YY-101 100 uM • 16. PBMC+LPS (5 ug/ml)+YY-101 10 uM • 17. PBMC+LPS (5 ug/ml)+YY-101 1 uM • 18. PBMC+LPS (5 ug/ml)+YY-101 0.1 uM • 19. PBMC+LPS (5 ug/ml)+YY-101 0.01 uM • 20. PBMC+LPS (5 ug/ml)+YY-101 0.001 uM • 21. PBMC+LPS (5 ug/ml)+YDE-011 100 uM • 22. PBMC+LPS (5 ug/ml)+YDE-011 10 uM • 23. PBMC+LPS (5 ug/ml)+YDE-011 1 uM • 24. PBMC+LPS (5 ug/ml)+YDE-011 0.1 uM • 25. PBMC+LPS (5 ug/ml)+YDE-011 0.01 uM • 26. PBMC+LPS (5 ug/ml)+YDE-011 0.001 uM • 27. PBMC+LPS (5 ug/ml)+YDE-043 100 uM • 28. PBMC+LPS (5 ug/ml)+YDE-043 10 uM • 29. PBMC+LPS (5 ug/ml)+YDE-043 1 uM • 30. PBMC+LPS (5 ug/ml)+YDE-043 0.1 uM • 31. PBMC+LPS (5 ug/ml)+YDE-043 0.01 uM • 32. PBMC+LPS (5 ug/ml)+YDE-043 0.001 uM
(§3) Multiplex assay was used to measure 30 cytokines and chemokines. The 1:2, 1:10 and 1:200 diluted cell supernatant and serial dilution of the standard were dispensed into a 96 well plate at 50 ul/well. Then, the pre-mixed cocktail of antibody-coated magnetic beads was dispensed at 50 ul/well and incubated at room temperature for 2 h in a horizontal orbital microplate shaker at 800±500 rpm. The beads were washed using a magnetic device to prevent loss. The biotin-antibody was dispensed in 50 ul of each well and incubated at room temperature for 1 h in a shaker at 800±500 rpm. After washing, streptavidin-PE was added at 50 ul/well and incubated at room temperature for 30 min in a shaker under the same conditions. Finally, after washing, wash buffer (100 ul/well) was added to the plate and incubated in a shaker for 2 min. The Luminex™ 200 setting were set according to the manufacturer's protocol. The data was calculated with a standard five-parameter logistic nonlinear regression analysis of the data (xPonent software 4.2, USA). The levels of cytokine/chemokine are normalized to the live cell counts (1×10^5 cells/mL) and presented as concentrations per mL (pg/mL or ng/mL).

[2] = tested on: VEGF-A; experiment: Example 9 Luminex, LPS hPBMCs: VEGF-A; assay type: cell-based, human; details: Bead VEGF-A; for Concentration: dilution 2.0
Protocol: as §1, §2, §3

[3] = PBMC + LPS(5 ug/ml) + test article 0.001 uM, Mean
[4] = PBMC + LPS(5 ug/ml) + test article 0.001 uM, single replicates
[5] = PBMC + LPS(5 ug/ml) + test article 0.01 uM, Mean
[6] = PBMC + LPS(5 ug/ml) + test article 0.01 uM, single replicates
[7] = PBMC + LPS(5 ug/ml) + test article 0.1 uM, Mean
[8] = PBMC + LPS(5 ug/ml) + test article 0.1 uM, single replicates
[9] = PBMC + LPS(5 ug/ml) + test article 1 uM, Mean
[10] = PBMC + LPS(5 ug/ml) + test article 1 uM, single replicates
[11] = PBMC + LPS(5 ug/ml) + test article 10 uM, Mean
[12] = PBMC + LPS(5 ug/ml) + test article 10 uM, single replicates
[13] = PBMC + LPS(5 ug/ml) + test article 100 uM, Mean
[14] = PBMC + LPS(5 ug/ml) + test article 100 uM, single replicates

In the case of `CC(C)C[C@H](NC(=O)[C@H](CCC(N)=O)NC(=O)CNC(=O)[C@@H]1C[C@@H](O)CN1)C(=O)NCC(=O)O` [YDE-043] (H-[Hyp]GQLG-OH; N-terminus and C-terminus assumed), the “Concentration” value [1, 3] was 305.6 pg/mL, the “conc/live cell (pg/10^5)” value [1, 3] was 62.5 pg/10^5 and the “Concentration” value [1, 4] was 335.7 pg/mL and 298.3 pg/mL and 282.9 pg/mL. The “conc/live cell (pg/10^5)” value [1, 4] was 76.3 pg/10^5 and 49.7 pg/10^5 and 61.5 pg/10^5, the “Concentration” value [1, 5] was 344.9 pg/mL and the “conc/live cell (pg/10^5)” value [1, 5] was 65.7 pg/10^5. The “Concentration” value [1, 6] was 344.9 pg/mL and 362.6 pg/mL and 327.1 pg/mL, the “conc/live cell (pg/10^5)” value [1, 6] was 76.7 pg/10^5 and 54.9 pg/10^5 and 65.4 pg/10^5 and the “Concentration” value [1, 7] was 322.4 pg/mL. The “conc/live cell (pg/10^5)” value [1, 7] was 59.9 pg/10^5, the “Concentration” value [1, 8] was 330.0 pg/mL and 312.8 pg/mL and 324.3 pg/mL and the “conc/live cell (pg/10^5)” value [1, 8] was 66.0 pg/10^5 and 55.9 pg/10^5 and 57.9 pg/10^5. The “Concentration” value [1, 9] was 327.6 pg/mL, the “conc/live cell (pg/10^5)” value [1, 9] was 62.1 pg/10^5 and the “Concentration” value [1, 10] was 328.6 pg/mL and 312.8 pg/mL and 341.4 pg/mL. For the same compound, the “conc/live cell (pg/10^5)” value [1, 10] was 56.7 pg/10^5 and 65.2 pg/10^5 and 64.4 pg/10^5, the “Concentration” value [1, 11] was 297.7 pg/mL and the “conc/live cell (pg/10^5)” value [1, 11] was 55.2 pg/10^5. For the same compound, the “Concentration” value [1, 12] was 318.5 pg/mL and 277.0 pg/mL and 297.5 pg/mL, the “conc/live cell (pg/10^5)” value [1, 12] was 61.3 pg/10^5 and 51.3 pg/10^5 and 53.1 pg/10^5 and the “Concentration” value [1, 13] was 109.4 pg/mL. For the same compound, the “conc/live cell (pg/10^5)” value [1, 13] was 17.4 pg/10^5, the “Concentration” value [1, 14] was 106.7 pg/mL and 112.1 pg/mL and the “conc/live cell (pg/10^5)” value [1, 14] was 17.2 pg/10^5 and 17.5 pg/10^5. It also gave a conc/live cell [2, 3] of 0.7 pg/10^5, a Concentration [2, 3] of 3.6 pg/mL and a Concentration [2, 4] of 3.6 pg/mL. The conc/live cell [2, 4] was 0.8 pg/10^5 (2×) and 0.6 pg/10^5, the conc/live cell [2, 5] was 0.1 pg/10^5 and the Concentration [2, 5] was 0.6 pg/mL. It also gave a Concentration [2, 6] of 0.6 pg/mL, a conc/live cell [2, 6] of 0.1 pg/10^5 and a conc/live cell [2, 7] of 0.1 pg/10^5. It also gave a Concentration [2, 7] of 0.6 pg/mL, a Concentration [2, 8] of 0.6 pg/mL and a conc/live cell [2, 8] of 0.1 pg/10^5. For the same compound, the conc/live cell [2, 9] was 0.8 pg/10^5, the Concentration [2, 9] was 4.4 pg/mL and the Concentration [2, 10] was 6.1 pg/ml and 3.6 pg/ml (2×). The conc/live cell [2, 10] was 1.1 pg/10^5 and 0.7 pg/10^5 (2×), the conc/live cell [2, 11] was 0.7 pg/10^5 and the Concentration [2, 11] was 5.5 pg/mL. For the same compound, the Concentration [2, 12] was 6.1 pg/mL and 4.9 pg/mL, the conc/live cell [2, 12] was 0.0 pg/10^5 and 1.1 pg/10^5 and 0.9 pg/10^5 and the conc/live cell [2, 13] was 0.4 pg/10^5. The Concentration [2, 13] was 4.9 pg/mL, the Concentration [2, 14] was 4.9 pg/mL and the conc/live cell [2, 14] was 0.8 pg/10^5 and 0.0 pg/10^5.
